The record followed here is patent US20220370429A1, “AROMATIC HETEROCYCLIC COMPOUND HAVING TRICYCLIC STRUCTURE, AND PREPARATION METHOD THEREFOR AND APPLICATION THEREOF” (SHANGHAI LONGWOOD BIOPHARMACEUTICALS CO., LTD., priority 2019, published 2022).

Bounds are passed on as bounds.

This assay deals with T1, PD-1/PD-L1 (Homo sapiens, UniProt Q9NZQ7).
T1 construct: Recombinant human PD-L1 protein (19-238) with a His-tagged at the C-terminus; purchased AcroBiosystems PD1-H5229 (PD-L1); PD1-H5257 (PD-1)
T1 sequence (Q9NZQ7 19-238): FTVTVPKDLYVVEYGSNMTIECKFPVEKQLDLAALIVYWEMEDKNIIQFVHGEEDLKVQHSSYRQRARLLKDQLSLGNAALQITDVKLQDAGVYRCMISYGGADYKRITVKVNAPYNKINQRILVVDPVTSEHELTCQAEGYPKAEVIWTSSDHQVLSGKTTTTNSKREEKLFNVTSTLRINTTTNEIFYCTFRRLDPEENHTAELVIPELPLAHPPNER
The assay is described as follows: PD-1/PD-L1 Homogeneous Time-Resolved Fluorescence (HTRF) Binding Assay. The note with it: 25° C., PBS pH 7.4, ~3 nM PD1, 10 nM PD-L1. The method, then: Example A: PD-1/PD-L1 Homogeneous Time-Resolved Fluorescence (HTRF) Binding Assay
Assays were performed in standard black 384-well polystyrene plates and a final volume was 20 μL. The inhibitor was first serially diluted with DMSO and added to the wells of the plate, followed by the addition of other reaction components. The final concentration of DMSO in the assay was 1%. Assays were performed at 25° C. in PBS buffer (pH 7.4) containing 0.05% Tween-20 and 0.1% BSA. Recombinant human PD-L1 protein (19-238) with a His-tagged at the C-terminus was purchased from AcroBiosystems (PD1-H5229). Recombinant human PD-1 protein (25-167) with an Fc tag at the C-terminus was also purchased from AcroBiosystems (PD1-H5257). The PD-L1 and PD-1 proteins were diluted in assay buffer and then […] of the solution was extracted and added to the wells of the plate. Plates were centrifuged and proteins and inhibitors were preincubated for 40 minutes. After incubation, 0.1 μl of HTRF detection buffer containing europium […] labeled anti-human IgG (PerkinElmer-AD0212), Fc-specific and anti-His SureLight®-Allophycocyanin (APC, PerkinElmer-AD0059H) conjugated antibodies was added. After centrifugation, the plates were incubated at 25° C. for 60 minutes. Data was read in a PHERAstar FS plate reader (665 nm/620 nm ratio). Final concentrations in the assay were ˜3 nM PD1, 10 nM PD-L1, 1 nM europium anti-human IgG, and 20 nM anti-His-allophycocyanin. Activity data were fitted using GraphPad Prism 5_0 software to derive IC50 values for inhibitors.
(In TR-FRET formats the signal depends on donor and acceptor labels being close together.)
For the compound `COc1nc(O[C@H]2CCc3c(-c4cccc(-c5nc6cc7c(c(C#N)c6o5)CC[C@H]7N5CC[C@@H](C(=O)NS(=O)(=O)C6(C)CC6)C5)c4Cl)cccc32)c(Cl)cc1CN1CC[C@@H](O)C1` [Compound 096], the IC50 is not above 10 nM.

In turn, `COc1nc(O[C@H]2CCc3c(-c4cccc(-c5nc6cc7c(c(C#N)c6o5)CC[C@H]7N5CC[C@@H](C(=O)NS(=O)(=O)C6(C)CC6)C5)c4C)cccc32)c(Cl)cc1CN1CC2(CCC(=O)N2)C1` [Compound 090] gave an IC50 not above 10 nM.

In turn, `COc1nc(O[C@H]2CCc3c(-c4cccc(-c5nc6cc7c(c(C#N)c6o5)CC[C@H]7N5CC[C@@H](C(=O)NS(=O)(=O)C6CC6)C5)c4Cl)cccc32)c(C(F)F)cc1CN1CC[C@@H](O)C1` [Compound 088] came in with a concentration for half-maximal inhibition (IC50) not above 10 nM.

Compound `COc1nc(O[C@H]2CCc3c(-c4cccc(-c5nc6cc7c(c(C#N)c6o5)CCC7N5CC[C@@H](C(=O)O)C5)c4Cl)cccc32)c(Cl)cc1CN1CC[C@@H](O)C1` (stereo partly drawn) [Compound 005] registered a half-inhibitory concentration (IC50) not above 10 nM.

Regarding `COc1nc(O[C@H]2CCc3c(-c4cccc(-c5nc6cc7c(c(C#N)c6o5)CCC7N5CC[C@@H](C(=O)O)C5)c4Cl)cccc32)ccc1CN1CC[C@@H](O)C1` (stereo partly drawn) [Compound 004], the IC50 was not above 10 nM.

The compound `COc1nc(O[C@H]2CCc3c(-c4cccc(-c5nc6cc7c(c(C#N)c6o5)CC[C@H]7N5CC[C@@H](C(=O)NS(=O)(=O)C6CC6)C5)c4C)cccc32)ccc1CN1CC[C@@H](O)C1` [Compound 094] displayed a half-inhibitory concentration (IC50) not above 10 nM.

In turn, `COc1nc(O[C@H]2CCc3c(-c4cccc(-c5nc6cc7c(c(C#N)c6o5)CC[C@H]7N5CC[C@@H](C(=O)O)C5)c4Cl)cccc32)c(Cl)cc1CN1CC[C@@H](O)C1` [Compound 006] had an IC50 not above 10 nM.

Compound `COc1nc(O[C@H]2CCc3c(-c4cccc(-c5nc6cc7c(c(C#N)c6o5)CC[C@H]7N5CC[C@@H](C(=O)NS(=O)(=O)C6(C)CC6)C5)c4Cl)cccc32)ccc1CN1CC[C@@H](O)C1` [Compound 097] returned a half-maximal inhibitory concentration (IC50) not above 10 nM.

In the case of `COc1nc(O[C@H]2CCc3c(-c4cccc(-c5nc6cc7c(c(C#N)c6o5)CC[C@H]7N5CC[C@@H](C(=O)O)C5)c4C)cccc32)ccc1CN1CC[C@@H](O)C1` [Compound 091], the IC50 was not above 10 nM.

In the case of `COc1nc(O[C@H]2CCc3c(-c4cccc(-c5nc6cc7c(c(C#N)c6o5)CC[C@H]7N5CC[C@@H](C(=O)O)C5)c4Cl)cccc32)c(C(F)F)cc1CN1CC[C@@H](O)C1` [Compound 086], the IC50 was not above 10 nM.

Compound `COc1nc(O[C@H]2CCc3c(-c4cccc(-c5nc6cc7c(c(C#N)c6o5)CC[C@H]7N5CC[C@@H](C(=O)NS(=O)(=O)C6CC6)C5)c4C)cccc32)c(Cl)cc1CN1CC[C@@H](O)C1` [Compound 079] yielded an IC50 not above 10 nM.

`COc1nc(O[C@H]2CCc3c(-c4cccc(-c5nc6cc7c(c(C#N)c6o5)CC[C@H]7N5CC[C@@H](C(=O)NS(=O)(=O)C6CC6)C5)c4Cl)cccc32)ccc1CN1CC[C@@H](O)C1` [Compound 093]: the IC50 is not above 10 nM.

`COc1nc(O[C@H]2CCc3c(-c4cccc(-c5cc6cc7c(c(C#N)c6o5)CC[C@H]7N5CC[C@@H](C(=O)NS(=O)(=O)C6CC6)C5)c4C)cccc32)c(Cl)cc1CN1CC[C@@H](O)C1` [Compound 080]: the IC50 is not above 10 nM.

For `COc1nc(O[C@H]2CCc3c(-c4cccc(-c5nc6cc7c(c(C#N)c6o5)CCC7N5CC[C@@H](C(=O)O)C5)c4C)cccc32)ccc1CN1CC[C@@H](O)C1` (stereo partly drawn) [Compound 003], the IC50 is not above 10 nM.

In the case of `COc1nc(O[C@H]2CCc3c(-c4cccc(-c5nc6cc7c(c(C#N)c6o5)CC[C@H]7N5CC[C@@H](C(=O)NS(=O)(=O)C6(C)CC6)C5)c4C)cccc32)ccc1CN1CC[C@@H](O)C1` [Compound 095], the 50% inhibitory concentration (IC50) is not above 10 nM.

`COc1nc(O[C@H]2CCc3c(-c4cccc(-c5nc6cc7c(c(C#N)c6o5)CC[C@H]7N5CC[C@@H](C(=O)NS(=O)(=O)C6CC6)C5)c4Cl)cccc32)c(Cl)cc1CNC[C@H]1CCC(=O)N1` [Compound 081]: the IC50 is not above 10 nM.

On to `COc1nc(O[C@H]2CCc3c(-c4cccc(-c5cc6cc7c(c(C#N)c6o5)CCC7N5CC[C@@H](C(=O)O)C5)c4C)cccc32)ccc1CN1CC[C@@H](O)C1` (stereo partly drawn) [Compound 001], for which the 50% inhibitory concentration (IC50) was not above 10 nM.

For `COc1nc(O[C@H]2CCc3c(-c4cccc(-c5nc6cc7c(c(C#N)c6o5)CC[C@H]7N5CC[C@@H](C(=O)NS(=O)(=O)C6CC6)C5)c4C)cccc32)c(C(F)F)cc1CN1CC[C@@H](O)C1` [Compound 087], the IC50 was not above 10 nM.

In the case of `COc1nc(O[C@H]2CCc3c(-c4cccc(-c5nc6cc7c(c(C#N)c6o5)CC[C@H]7N5CC[C@@H](C(=O)NS(=O)(=O)C6CC6)C5)c4Cl)cccc32)c(Cl)cc1CN1CC2(CCC(=O)N2)C1` [Compound 083], the IC50 was not above 10 nM.

As for `COc1nc(O[C@H]2CCc3c(-c4cccc(-c5nc6cc7c(c(C#N)c6o5)CC[C@H]7N5CC[C@@H](C(=O)O)C5)c4Cl)cccc32)ccc1CN1CC[C@@H](O)C1` [Compound 092], the IC50 is not above 10 nM.

Consider `COc1nc(O[C@H]2CCc3c(-c4cccc(-c5nc6cc7c(c(C#N)c6o5)CC[C@H]7N5CC[C@@H](C(=O)NS(=O)(=O)C6(C)CC6)C5)c4C)cccc32)c(Cl)cc1CN1CC[C@@H](O)C1` [Compound 098], for which the IC50 was not above 10 nM.

As usually defined, the IC50 is the concentration that inhibits the measured activity by half. A higher IC50 goes with lower potency.
